Our source for the LogMA and LogHSA values is US20050137807A1, “Method of visualization of the ADME properties of chemical substances” (priority 2003, published 2005).

Read-outs that look alike come from different tables or passages of the source.

Data set [1] is described as follows: membrane affinity as a measure of the lipophilicity (TRANSIL technology). It is filed as physicochemical.
For another data set, the target named is human serum albumin (Homo sapiens, UniProt P02768). The experiment in a line: binding constant to human serum albumin (TRANSIL technology). An excerpt:
The effective molecular weight (MW) is obtained simply from the respective empirical formula of the substance. The waters solubilities and the typical administered dosages of these commercially available products are furthermore known from the literature.
The ADME maps in FIGS. 5 to 10 show by way of example a selection of commercially available pharmaceutical substances. The substance names and the associated experimental measurement values for their physicochemical properties are summarised in Table 1.

Where [2] appears, read: log binding constant to human serum albumin, TRANSIL.

human serum albumin, sequence (P02768 25-609): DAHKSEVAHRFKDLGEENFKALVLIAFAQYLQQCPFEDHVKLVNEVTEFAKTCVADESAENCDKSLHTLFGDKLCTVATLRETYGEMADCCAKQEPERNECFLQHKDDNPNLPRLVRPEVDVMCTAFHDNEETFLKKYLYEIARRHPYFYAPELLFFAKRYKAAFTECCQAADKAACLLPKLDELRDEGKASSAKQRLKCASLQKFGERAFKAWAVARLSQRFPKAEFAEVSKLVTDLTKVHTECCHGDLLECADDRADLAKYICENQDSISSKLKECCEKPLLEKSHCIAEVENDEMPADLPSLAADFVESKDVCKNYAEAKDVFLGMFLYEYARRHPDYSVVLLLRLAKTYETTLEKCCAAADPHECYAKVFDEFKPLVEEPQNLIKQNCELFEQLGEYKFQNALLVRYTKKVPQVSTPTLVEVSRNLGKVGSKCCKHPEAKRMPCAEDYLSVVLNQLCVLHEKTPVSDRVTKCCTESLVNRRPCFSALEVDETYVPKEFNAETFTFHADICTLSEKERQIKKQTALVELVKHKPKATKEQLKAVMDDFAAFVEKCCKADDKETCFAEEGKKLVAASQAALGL

Compound `C[C@H](N[C@@H](CCc1ccccc1)C(=O)O)C(=O)N1CCC[C@H]1C(=O)O` [Enalaprilate] returned a LogMA in data set [1] of 0.176.

As for `NS(=O)(=O)c1cc(C(=O)O)c(NCc2ccco2)cc1Cl` [Furosemide], the LogMA in data set [1] turned out to be 1.342.

In turn, Gentamicin displayed a LogMA in data set [1] of 0.000.

As for `CCN(CC)CC(=O)Nc1c(C)cccc1C` [Lidocaine], the LogMA in data set [1] amounted to 1.771.

Regarding `O=C(O)Cc1ccccc1Nc1c(Cl)cccc1Cl` [Diclofenac], in data set [1], the LogMA worked out at 2.940.

Compound `N=C(N)NC(=O)c1nc(Cl)c(N)nc1N` [Amiloride] yielded a LogMA in data set [1] of 0.301.

With `CC(C(=O)O)c1cccc(C(=O)c2ccccc2)c1` (stereo not shown) [Ketoprofen], in data set [1], the LogMA is recorded as 1.505.

`CC(C)NCC(O)c1ccc(NS(C)(=O)=O)cc1` (stereo not shown) [Sotalol]: the LogMA in data set [1] is 1.301. On human serum albumin (human), this compound came in with a LogHSA of −1.678.

Compound `C=CCOc1ccccc1OCC(O)CNC(C)C` (stereo not shown) [Oxprenolol] showed a LogMA in data set [1] of 2.301. Further, at human serum albumin (human), the LogHSA was −3.301.

On to `CCN(CC)CCNC(=O)c1ccc(N)cc1` [Procainamide], for which, in data set [1], the LogMA is listed as 1.176.

Turning to `CC(C)NCC(O)COc1ccc(CC(N)=O)cc1` (stereo not shown) [Atenolol], in data set [1], the LogMA is listed as 0.602.

The compound `OC(CCN1CCCCC1)(c1ccccc1)C1CCCCC1` (stereo not shown) [Trihexylphenidyl] came in with a LogMA in data set [1] of 2.415. Also, at human serum albumin (setting [2]), the LogHSA is recorded as −3.006.

As for `CCOC(=O)C1=C(C)NC(C)=C(C(=O)OC)C1c1cccc(Cl)c1Cl` (stereo not shown) [Felodipine], the LogHSA on human serum albumin (setting [2]) is recorded as −5.301.

`COCCc1ccc(OCC(O)CNC(C)C)cc1` (stereo not shown) [Metoprolol] displayed a LogMA in data set [1] of 1.591. This compound also gave a LogHSA at human serum albumin (human) of −2.000.

On to `CN1[C@@H]2C[C@@H](OC(=O)[C@H](CO)c3ccccc3)C[C@H]1[C@@H]1O[C@@H]12` [Scopolamine], for which the LogMA in data set [1] turned out to be 1.462.

`O=C(O)c1ccccc1O` [Salicylic acid]: the LogMA in data set [1] is 0.602.

In turn, `Cc1onc(-c2c(Cl)cccc2Cl)c1C(=O)N[C@@H]1C(=O)N2[C@@H]1SC(C)(C)[C@@H]2C(=O)O` [Dicloxacillin] returned a LogMA in data set [1] of 2.079. Further, on human serum albumin (human), the LogHSA was −4.064.

With `Clc1cccc(Cl)c1N=C1NCCN1` [Clonidine], the LogMA in data set [1] is 1.602. The LogHSA at human serum albumin (human) is on record as −2.463.

For the compound `Nc1nc2c(ncn2COCCO)c(=O)[nH]1` [Acyclovir], the LogMA in data set [1] is −0.097.

`C[C@H]1C[C@@H]2[C@H]([C@@H](O)C[C@@]3(C)[C@H]2CC[C@]3(O)C(=O)CO)[C@@]2(C)C=CC(=O)C=C12` [Methylprednisolone] registered a LogHSA at human serum albumin (human) of −3.000.

Regarding `C[C@]12CCC(=O)C=C1CC[C@@H]1[C@@H]2[C@@H](O)C[C@@]2(C)[C@H]1CC[C@]2(O)C(=O)CO` [Hydrocortisone], the LogMA in data set [1] is 2.716.

`Nc1nc(O)c2ncn(COC(CO)CO)c2n1` [Ganciclovir]: in data set [1], the LogMA is listed as −0.301.

For `Cc1cn([C@H]2C[C@H](N=[N+]=[N-])[C@@H](CO)O2)c(=O)[nH]c1=O` [Zidovudine], the LogMA in data set [1] turned out to be 0.903.

Regarding `CC(C)NCC(O)COc1ccc(CCOCC2CC2)cc1` (stereo not shown) [Betaxolol], the LogMA in data set [1] is given as 2.398. For the same compound, the LogHSA at human serum albumin (human) was −3.187.

As to `CCN1CCN(C(=O)N[C@@H](C(=O)N[C@@H]2C(=O)N3C(C(=O)O)=C(CSc4nnnn4C)CS[C@H]23)c2ccc(O)cc2)C(=O)C1=O` [Cefoperazone], the LogMA in data set [1] came out at 1.362.

Take `CCOC(=O)C1=C(COCCN)NC(C)=C(C(=O)OC)C1c1ccccc1Cl` (stereo not shown) [Amlodipine]: on human serum albumin (setting [2]), the LogHSA is on record as −5.000.

In data set [1], `CN1C(=O)CN=C(c2ccccc2)c2cc(Cl)ccc21` [Diazepam] showed a LogMA of 3.170.

Regarding `CC(C)n1c(/C=C/C(O)CC(O)CC(=O)O)c(-c2ccc(F)cc2)c2ccccc21` (stereo not shown) [Fluvastatin], on human serum albumin (human), the LogHSA was −5.678.

Consider `C[C@H]1O[C@@H](O[C@H]2[C@@H](O)C[C@H](O[C@H]3[C@@H](O)C[C@H](O[C@H]4CC[C@@]5(C)[C@H](CC[C@@H]6[C@@H]5C[C@@H](O)[C@]5(C)[C@@H](C7=CC(=O)OC7)CC[C@]65O)C4)O[C@@H]3C)O[C@@H]2C)C[C@H](O)[C@@H]1O` [Digoxin], for which the LogMA in data set [1] stood at 1.477. The same compound registered a LogHSA at human serum albumin (setting [2]) of −2.284.

On to `CCCC(C)C1(CC)C(=O)NC(=O)NC1=O` (stereo not shown) [Pentobarbital], for which, in data set [1], the LogMA was determined as 2.176. Further, on human serum albumin (setting [2]), the LogHSA is given as −2.523.

The compound `NC(=O)N1c2ccccc2C=Cc2ccccc21` [Carbamazepine] had a LogMA in data set [1] of 2.519. The compound further showed a LogHSA at human serum albumin (human) of −2.539.

Regarding `Cc1cc(=O)n(-c2ccccc2)n1C` [Antipyrine], the LogMA in data set [1] was determined as 1.146.

Compound `COc1ccc2c(c1)c(CC(=O)O)c(C)n2C(=O)c1ccc(Cl)cc1` [Indomethacin] came in with a LogMA in data set [1] of 2.255.

In data set [1], `CC1(C)S[C@@H]2[C@H](NC(=O)COc3ccccc3)C(=O)N2[C@H]1C(=O)O` [Phenoxymethyl penicillinic acid] gave a LogMA of 1.146. This compound also had a LogHSA on human serum albumin of −3.102.

In data set [1], `O=C(CCCN1CCC(O)(c2ccc(Cl)cc2)CC1)c1ccc(F)cc1` [Haloperidol] came in with a LogMA of 3.723. For the same compound, the LogHSA on human serum albumin (human) is given as −2.745.

`CN1CCN(C2=Nc3cc(Cl)ccc3Nc3ccccc32)CC1` [Clozapine] gave a LogHSA at human serum albumin (human) of −3.814.

The compound `CC(CN1c2ccccc2Sc2ccccc21)N(C)C` (stereo not shown) [Promethazine] returned a LogMA in data set [1] of 3.992. Moreover, at human serum albumin (human), the LogHSA is −3.028.

Take `CCOC(=O)[C@H](CCc1ccccc1)N[C@@H](C)C(=O)N1CCC[C@H]1C(=O)O` [Enalapril]: in data set [1], the LogMA was 1.000. Besides, the LogHSA on human serum albumin (human) is recorded as −2.959.

Consider `CNC(=C[N+](=O)[O-])NCCSCc1ccc(CN(C)C)o1` [Ranitidine], for which the LogHSA at human serum albumin (human) is listed as −2.155.

Take `CN(C)CCCN1c2ccccc2Sc2ccc(Cl)cc21` [Chlorpromazine]: the LogMA in data set [1] was determined as 4.075. The compound further registered a LogHSA at human serum albumin (human) of −3.284.

As for `Cc1nnc(NS(=O)(=O)c2ccc(N)cc2)s1` [Sulfamethizole], the LogMA in data set [1] amounted to 1.000. Also, the LogHSA on human serum albumin (human) was −4.000.

Compound `COc1ccc(Cl)cc1C(=O)NCCc1ccc(S(=O)(=O)NC(=O)NC2CCCCC2)cc1` [Glibenclamid] returned a LogMA in data set [1] of 2.301. On human serum albumin, this compound displayed a LogHSA of −6.221.

In turn, `CN(C)CCCN1c2ccccc2Sc2ccccc21` [Promazine] returned a LogMA in data set [1] of 3.823. On human serum albumin (setting [2]), the LogHSA was −3.301.

In data set [1], `CC1=C(C(=O)O)N2C(=O)[C@@H](NC(=O)[C@H](N)c3ccc(O)cc3)[C@H]2SC1` [Cefadroxil] displayed a LogMA of 1.079.

The compound `CO[C@@]1(NC(=O)CSCC#N)C(=O)N2C(C(=O)O)=C(CSc3nnnn3C)CS[C@@H]21` [Cefmetazole] returned a LogMA in data set [1] of 1.079.

Turning to `CC(=O)Nc1ccc(O)cc1` [Paracetamol], the LogMA in data set [1] is 0.778. The same compound gave a LogHSA at human serum albumin (human) of −2.000.

In data set [1], `COc1ccc([C@@H]2Sc3ccccc3N(CCN(C)C)C(=O)[C@@H]2OC(C)=O)cc1` [Diltiazem] gave a LogMA of 2.544.

As for `C[C@]12C=CC(=O)C=C1CC[C@@H]1[C@@H]2[C@@H](O)C[C@@]2(C)[C@H]1CC[C@]2(O)C(=O)CO` [Prednisolone], the LogMA in data set [1] worked out at 2.568.

Compound `CCCCNc1cc(C(=O)O)cc(S(N)(=O)=O)c1Oc1ccccc1` [Bumetanide] gave a LogMA in data set [1] of 2.279. Besides, the LogHSA on human serum albumin (human) was −5.076.

For the compound `CCn1cc(C(=O)O)c(=O)c2cc(F)c(N3CCNCC3)cc21` [Norfloxacin], the LogMA in data set [1] is reported as 0.602. Further, the LogHSA at human serum albumin (human) is listed as −3.000.

Consider `COc1cc2nc(N3CCN(C(=O)c4ccco4)CC3)nc(N)c2cc1OC` [Prazosin], for which the LogMA in data set [1] is recorded as 2.544.

`CC1(C)S[C@@H]2[C@H](NC(=O)[C@H](N)c3ccc(O)cc3)C(=O)N2[C@H]1C(=O)O` [Amoxicilin] displayed a LogMA in data set [1] of 0.778. The compound also displayed a LogHSA on human serum albumin (setting [2]) of −2.301.

`CC(=O)CC(c1ccccc1)c1c(O)c2ccccc2oc1=O` (stereo not shown) [Warfarin] had a LogMA in data set [1] of 1.505.

In data set [1], `O=C(O)c1cn(C2CC2)c2cc(N3CCNCC3)c(F)cc2c1=O` [Ciprofloxacin] came in with a LogMA of 0.954.

The compound `O=C(O)c1cc(/N=N/c2ccc(S(=O)(=O)Nc3ccccn3)cc2)ccc1O` [Sulfasalacine] came in with a LogMA in data set [1] of 2.748.

Turning to `COCCOC(=O)C1=C(C)NC(C)=C(C(=O)OC(C)C)C1c1cccc([N+](=O)[O-])c1` (stereo not shown) [Nimodipine], on human serum albumin (human), the LogHSA is reported as −5.000.

`O=C1CN=C(c2ccccc2)c2cc(Cl)ccc2N1` [Nordiazepam]: in data set [1], the LogMA amounted to 3.086.

`NCCCC[C@H](N[C@@H](CCc1ccccc1)C(=O)O)C(=O)N1CCC[C@H]1C(=O)O` [Lisinopril] showed a LogMA in data set [1] of 0.845.

In the case of `CCC1(c2ccccc2)C(=O)NC(=O)NC1=O` [Phenobarbital], the LogHSA on human serum albumin (setting [2]) is listed as −2.854.

For the compound `COC(=O)C1=C(C)NC(C)=C(C(=O)OCCN(C)Cc2ccccc2)C1c1cccc([N+](=O)[O-])c1` (stereo not shown) [Nicardipine], the LogHSA on human serum albumin (human) is on record as −5.000.

`CC1=C(C(=O)O)N2C(=O)[C@@H](NC(=O)[C@H](N)c3ccccc3)[C@H]2SC1` [Cephalexine] returned a LogMA in data set [1] of 0.778.

For the compound `CC1(C)S[C@@H]2[C@H](NC(=O)[C@H](N)c3ccccc3)C(=O)N2[C@H]1C(=O)O` [Ampicillin], the LogMA in data set [1] came to 1.114.

In data set [1], `COc1cc([C@@H]2c3cc4c(cc3[C@@H](O[C@@H]3O[C@@H]5CO[C@@H](C)O[C@H]5[C@H](O)[C@H]3O)[C@H]3COC(=O)[C@H]23)OCO4)cc(OC)c1O` [Etoposide] yielded a LogMA of 2.000.

In data set [1], `CC(=O)Nc1ccc(OCC(O)CNC(C)C)cc1` (stereo not shown) [Practolol] yielded a LogMA of 1.301.

In the case of `CC(C)Cc1ccc(C(C)C(=O)O)cc1` (stereo not shown) [Ibuprofen], the LogMA in data set [1] was 1.778.

Compound `CO[C@@]1(NC(=O)Cc2cccs2)C(=O)N2C(C(=O)O)=C(COC(N)=O)CS[C@@H]21` [Cefoxitin] came in with a LogMA in data set [1] of 1.000.
